In general, pIC50 refers to −log10 of the IC50, conventionally taken in molar units. By MIC is commonly meant the lowest concentration that inhibits growth of the organism. For orientation: MIC90 means the lowest concentration that inhibits either 90% of growth or 90% of the strains tested, depending on the study. One may read the IC50 as the concentration at which inhibition is half-maximal. By MBC is commonly meant the lowest tested concentration that kills the bacteria rather than only halting them. Low values mean more potent killing, high ones less potent killing. By EC50 is commonly meant the concentration that produces a half-maximal response.

Experiment [1] addresses T1, Enoyl-[acyl-carrier-protein] reductase [NADPH] FabI (Staphylococcus aureus, UniProt Q6GI75).
T1 sequence (Q6GI75 whole entry): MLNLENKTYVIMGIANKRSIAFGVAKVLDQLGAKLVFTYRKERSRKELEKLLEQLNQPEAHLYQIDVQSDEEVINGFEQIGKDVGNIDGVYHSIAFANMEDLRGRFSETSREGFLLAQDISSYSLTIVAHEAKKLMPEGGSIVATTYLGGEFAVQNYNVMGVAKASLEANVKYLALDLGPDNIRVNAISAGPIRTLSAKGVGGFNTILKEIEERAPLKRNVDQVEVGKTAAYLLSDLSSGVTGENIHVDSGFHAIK
Put plainly: Inhibition of Staphylococcus aureus ATCC 29213 FabI in the presence of NADH using crotonyl CoA as substrate by measuring NADH consumption rate.

Experiment [2] relates to Staphylococcus aureus. Put plainly: Antibacterial activity against quinolone-resistant Staphylococcus aureus. The format is functional.
Experiment [3] has as its system Escherichia coli. Put plainly: Antibacterial activity against Escherichia coli ATCC 8730 assessed as inhibition of bacterial growth. The class given is functional.
A further experiment concerns Vibrio cholerae. The experiment in a line: Antibacterial activity against Vibrio cholerae. The format is functional.
Experiment [4] concerns Staphylococcus aureus. Put plainly: Antibacterial activity against Staphylococcus aureus ATCC 11632 assessed as reduction in bacterial growth at 25 ug/ml measured after 24 hrs serial dilution method. The class given is functional. Particulars: dose 25 µg/ml.
The test system of the next experiment is Bacillus subtilis. Put plainly: Antibacterial activity against Bacillus subtilis ATCC 60511 assessed as reduction in bacterial growth at 25 ug/ml measured after 24 hrs serial dilution method. The format is functional. Particulars: dose 25 µg/ml.
For experiment [5], the target named is T1, Enoyl-[acyl-carrier-protein] reductase [NADPH] FabI. Put plainly: Inhibition of Staphylococcus aureus FabI in the presence of NADH using crotonyl CoA as substrate by measuring NADH consumption rate.
Experiment [6] addresses T2, Enoyl-[acyl-carrier-protein] reductase [NADH] FabI (Escherichia coli K-12, UniProt P0AEK4).
T2 sequence (P0AEK4 whole entry): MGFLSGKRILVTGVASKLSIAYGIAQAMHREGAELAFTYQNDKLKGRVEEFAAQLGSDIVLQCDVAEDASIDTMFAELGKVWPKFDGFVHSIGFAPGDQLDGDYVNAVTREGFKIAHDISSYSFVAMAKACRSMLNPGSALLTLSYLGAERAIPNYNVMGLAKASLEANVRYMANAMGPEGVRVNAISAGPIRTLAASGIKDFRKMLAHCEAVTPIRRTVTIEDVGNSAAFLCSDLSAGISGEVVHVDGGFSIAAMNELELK
Put plainly: Inhibition of Escherichia coli FabI in the presence of NADH using crotonyl CoA as substrate by measuring NADH consumption rate.

Experiment [7] has as its system Staphylococcus aureus. The experiment in a line: Antibacterial activity against Methicillin-resistant Staphylococcus aureus ATCC 33592 assessed as bacterial growth inhibition measured after 24 hrs by broth dilution method. The format is functional.
For experiment [8], the system named is Staphylococcus aureus. Put plainly: Antibacterial activity against Methicillin-resistant Staphylococcus aureus N315 assessed as reduction in bacterial growth. The format is functional.
The test system of experiment [9] is Staphylococcus aureus. The experiment in a line: Antibacterial activity against Staphylococcus aureus assessed as inhibition of bacterial growth measured after 24 hrs. The format is functional.
The subject of the next experiment is Moraxella catarrhalis. Put plainly: Antibacterial activity against Moraxella catarrhalis assessed as inhibition in bacterial growth measured after 24 hrs by broth microdilution method. The class given is functional. (In broth dilution the organism is exposed to a series of concentrations in liquid medium.)
Experiment [10] in a line: Inhibition of Francisella tularensis FabI by addition of crotonyl-CoA as substrate preincubated for 10 mins followed by substrate addition in presence of NAD by spectrophotometer.
For experiment [11], the system named is Staphylococcus aureus. Put plainly: Antibacterial activity against Staphylococcus aureus ATCC 29213 assessed as bacterial growth inhibition incubated for 24 hrs by broth dilution method. The class given is functional.
In experiment [12] the test system is Staphylococcus aureus. The experiment in a line: Antibacterial activity against methicillin-resistant Staphylococcus aureus ATCC 4330 assessed as reduction in bacterial growth. The format is functional.
Experiment [13] relates to Staphylococcus aureus. Put plainly: Antibacterial activity against Methicillin-sensitive Staphylococcus aureus ATCC 4330 assessed as reduction in bacterial growth. The class given is functional.
The target in experiment [14] is T2, Enoyl-[acyl-carrier-protein] reductase [NADH] FabI. The experiment in a line: Inhibition of Escherichia coli DH5alpha FabI in the presence of NADH using crotonyl CoA as substrate by measuring NADH consumption rate.
Experiment [15] can be described thus: Inhibition of Pseudomonas fluorescens FabI assessed as inhibition.
A short description of experiment [16]: Inhibition of Pseudomonas fluorescens FabG assessed as inhibition.
A short description of experiment [17]: Inhibition of Plasmodium falciparum NF54 HDAC using extract measured after 60 mins by fluorescence assay.
Experiment [18] can be described thus: Inhibition of Bacillus anthracis enoyl ACP reductase assessed as inhibition of bacterial growth.
The next experiment relates to Bacillus anthracis. The experiment in a line: Antibacterial activity against Bacillus anthracis assessed as reduction in bacterial growth measured after 24 hrs by broth microdilution method. The class given is functional.
Experiment [19] concerns Staphylococcus aureus. The experiment in a line: Antibacterial activity against methicillin resistant Staphylococcus aureus assessed as reduction in bacterial growth incubated for 12 hrs by microdilution method. The class given is functional.
Experiment [20] deals with Staphylococcus aureus. Put plainly: Bactericidal activity against methicillin-resistant Staphylococcus aureus measured after 24 hrs by sub-culturing. The class given is functional.
For experiment [21], the system named is Staphylococcus aureus. Put plainly: Antibacterial activity against methicillin-sensitive Staphylococcus aureus assessed as reduction in bacterial growth incubated for 12 hrs by microdilution method. The class given is functional.
In a further experiment the test system is HeLa. Put plainly: Cytotoxicity against human HeLa cells assessed as inhibition of cell growth incubated for 48 hrs by CCK8 assay. The format is functional, cell-based.
Experiment [22] can be described thus: Cytotoxicity against mouse MH-S cells. The format is functional, cell-based.
The subject of experiment [23] is Escherichia coli. The experiment in a line: Antibacterial activity against Escherichia coli assessed as bacterial growth inhibition at 50 uM measured after 24 hrs by 96-wellplate reader assay method. The format is functional.

pIC50: −log10 of the molar value. Values after ≈ are worked out from the molar mass of the structure shown.

In the case of `CN1C(=O)[C@@H](c2cc(Cl)c(O)c(Cl)c2)NC(=O)[C@@H]2NC(=O)[C@@H](c3cc(Cl)c(O)c(Cl)c3)NC(=O)[C@H](NC(=O)C(=O)c3cc(Cl)c(O)c(Cl)c3)Cc3c[nH]c4c(cccc34)-c3cc2cc(c3O)Oc2ccc(cc2)C[C@H]1C(=O)N[C@@H](C(=O)O)c1ccc(O)cc1` [CHLOROPEPTIN], the pIC50 in experiment [1] is 6.52. Besides, the lowest concentration to inhibit growth against Staphylococcus aureus [2] (MIC) was 4 µg/mL (≈ 3.01 µM).

`COc1nc2ccc(C)cc2cc1C1CC(=O)N1NC(=O)c1ccc(-n2cccc2)cc1` (stereo not given): the MIC in the experiment with Escherichia coli [3] was determined as 0.4 µg/mL (≈ 0.938 µM); with Vibrio cholerae, 0.4 µg/mL (≈ 0.938 µM); in the experiment on Staphylococcus aureus [4] it was 12.5 µg/mL (≈ 29.3 µM); with Bacillus subtilis, 12.5 µg/mL (≈ 29.3 µM).

Regarding `COc1ccc(-c2cn(Cc3ccc(C)cc3)cn2)cc1`, the pIC50 in experiment [5] is 6.60; in experiment [6], 5.19.

Take `Cc1c(N)cccc1Cn1ccc(OCCc2cccs2)cc1=O` [CG-400549]: the MIC in the experiment on Staphylococcus aureus [7] was 0.25 µg/mL (≈ 0.734 µM). Also, the MIC90 in the experiment with Staphylococcus aureus [8] stood at 0.25 µg/mL (≈ 0.734 µM).

Regarding `CCCCCCCCCCCCCCCCc1cc(OC2OC(CO)C(O)C(O)C2O)cc(O)c1C(=O)Oc1cc(C)c(C(=O)O)c(O)c1` (stereo not given), the pIC50 in experiment [1] is 5.49.

Take `O=C(c1ccc(O)cc1)N1CCc2c(n(Cc3ccc(O)cc3)c3ccccc23)C1`: the MIC with Staphylococcus aureus [9] was found to be 0.5 µg/mL (≈ 1.25 µM); in the experiment with Moraxella catarrhalis, 8 µg/mL (≈ 20.1 µM).

In the case of `COc1nc2ccc(Br)cc2cc1C1CC(=O)N1NC(=O)c1ccncc1` (stereo not given), the MIC was found to be 0.4 µg/mL (≈ 0.936 µM) with Escherichia coli [3], 0.4 µg/mL (≈ 0.936 µM) against Vibrio cholerae, 3.12 µg/mL (≈ 7.31 µM) in the experiment on Staphylococcus aureus [4] and 3.12 µg/mL (≈ 7.31 µM) in the experiment on Bacillus subtilis.

Consider `CC(c1ccc(Cl)c(Cl)c1)n1cnc2cc3c(cc21)CCCC3` (stereo not given), for which, in experiment [10], the pIC50 was 7.85. In addition, the MIC in the experiment with Staphylococcus aureus [11] and with Staphylococcus aureus [7] was 3.1 µg/mL (≈ 8.98 µM) in each case.

Turning to `O=C(c1ccc(Cl)cc1O)N1CCc2c(n(Cc3ccc(O)cc3)c3ccccc23)C1`, the results for the MIC with Staphylococcus aureus [9] and in the experiment on Moraxella catarrhalis were 1 µg/mL (≈ 2.31 µM) and 2 µg/mL (≈ 4.62 µM), respectively.

Regarding `Cc1c(CN(C)C(=O)/C=C/c2cnc3c(c2)C2(CCC2)C(=O)N3)sc2ccccc12`, the MIC in the experiment on Staphylococcus aureus [12] and with Staphylococcus aureus [13] was 0.015 µg/mL (≈ 0.0359 µM) in each case.

As to `Cc1cc(Cl)ccc1Oc1coc(/C=C/c2ccc[nH]2)cc1=O`, in experiment [6], the pIC50 is 6.85.

In the case of `Cc1cccc(Cl)c1Cc1c(Cl)n(Cc2cccc(Cl)c2)ccc1=O`, the pIC50 in [1] and in experiment [14] was 6.47 throughout. In addition, the MIC90 with Staphylococcus aureus [8] was determined as 0.5 µg/mL (≈ 1.27 µM).

`CC(=O)c1cc2c(=O)c3c(C(=O)O)c(O)c(O)cc3oc2c(C(C)=O)c1-c1coc2cc(O)c(O)c(C(=O)O)c2c1=O` [VINAXANTHONE]: the pIC50 in [1] is 6.05.

For `C=C1C(=O)OC[C@H]1C(/C=C(\C)CC(=O)C=C(C)C)OC(C)=O` (stereo not given in full), the figures for the IC50 in [15] and in experiment [16] were 25 µg/mL (≈ 81.6 µM) and 50 µg/mL (≈ 163 µM), respectively.

For `Cc1ccc(C(=O)N2CCc3c(n(Cc4ccc(O)cc4)c4ccccc34)C2)c(O)c1`, the MIC turned out to be 1 µg/mL (≈ 2.42 µM) in the experiment with Staphylococcus aureus [9] and 4 µg/mL (≈ 9.7 µM) with Moraxella catarrhalis.

For `CC1CC(=O)c2c(cc3c(-c4c(O)cc(O)c5c(O)c6c(cc45)OC(C)CC6=O)c(O)cc(O)c3c2O)O1` (stereo not given) [CEPHALOCHROMIN], the pIC50 is 5.72 in experiment [1] and 5.74 in experiment [14].

As to `O=c1ccn(Cc2cccc(Br)c2)cc1C(O)c1c(Cl)cccc1Cl` (stereo not given), in experiment [6], the pIC50 is 6.37.

Regarding `C=C1C(=O)OC[C@H]1C(O)/C=C(\C)CC(=O)C=C(C)C` (stereo not given in full), the IC50 in experiment [17] turned out to be 20 µg/mL (≈ 75.7 µM); in experiment [15], 20 µg/mL (≈ 75.7 µM); in experiment [16] it was 75 µg/mL (≈ 284 µM).

For the molecule `O=[N+]([O-])c1ccc(Oc2ccc(Cl)cc2O)c(Cl)c1`, in experiment [18], the pIC50 is 6.52. The results for the MIC in the experiment with Bacillus anthracis, with Staphylococcus aureus [19] and in the experiment with Staphylococcus aureus [21] were under 0.1 µg/mL, 0.3 µg/mL (≈ 1 µM) and 0.1 µg/mL (≈ 0.333 µM), respectively. Besides, in the experiment with Staphylococcus aureus [20], the minimum bactericidal concentration (MBC) is 0.5 µg/mL (≈ 1.67 µM). For the same molecule, the EC50 was 29.3 µg/mL (≈ 97.6 µM) in the experiment with HeLa and 9.9 µg/mL (≈ 33 µM) in experiment [22].

Regarding `COc1ccc(Cn2cnc3cc4c(cc32)CCC4)cc1C`, the pIC50 in [10] is 8.30. Moreover, the MIC in the experiment on Staphylococcus aureus [11] and in the experiment with Staphylococcus aureus [7] was over 12.5 µg/mL in each case.

Regarding `Oc1cc(F)ccc1Oc1ccccc1`, in the experiment with Escherichia coli [23], the minimum inhibitory concentration (MIC) worked out at 0.6 µg/mL (≈ 2.94 µM).
